Substitutions are numbered along the chain they refer to. Numbers in names are those of the source. Where “and” joins values, the source holds several entries; their conditions need not be identical. Equal entries are not always repeated. Where two headings read alike, the source gives them in different places.
Assays:
wild-type GltPh [1] = biological target: T1, wild-type GltPh (Pyrococcus horikoshii, UniProt O59010); assay: Proteoliposome transport assay, wild-type GltPh; format: biochemical
T1 construct: hexa-His (N, cleaved yes); made in house; host or cells: Escherichia coli Top10 (pBAD)
T1 sequence (O59010 1-425): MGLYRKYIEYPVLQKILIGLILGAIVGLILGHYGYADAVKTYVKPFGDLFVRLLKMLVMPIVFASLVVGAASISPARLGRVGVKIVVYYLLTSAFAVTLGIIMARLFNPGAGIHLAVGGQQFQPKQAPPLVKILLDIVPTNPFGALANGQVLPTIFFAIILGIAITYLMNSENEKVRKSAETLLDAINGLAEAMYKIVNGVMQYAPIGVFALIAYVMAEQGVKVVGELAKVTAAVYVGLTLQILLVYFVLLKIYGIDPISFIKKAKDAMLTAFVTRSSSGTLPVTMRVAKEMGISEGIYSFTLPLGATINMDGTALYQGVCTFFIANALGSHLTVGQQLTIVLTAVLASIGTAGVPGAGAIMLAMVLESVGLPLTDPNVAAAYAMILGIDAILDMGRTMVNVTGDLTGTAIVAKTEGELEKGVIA
Description: (§1) Mutant and wild-type GltPh with an amino-terminal hexa-His tag were expressed in Escherichia coli Top10 cells (Invitrogen), which were grown in Luria broth medium at 37 °C. Ampicillin was added to a final concentration of 100 μg per ml. To induce expression of GltPh, 0.1% L-arabinose was added when cells reached an optical density of 0.6 at 660 nm, and cells were harvested 4 h post induction. Membranes were isolated, and then solubilised with n-dodecyl-β-D-maltopyranoside (C12M, Anatrace). Histidine containing proteins were purified using Ni^2+−nitrilotriacetic acid resin (Qiagen). The histidine tag was subsequently removed from GltPh by digestion with thrombin (10 U per mg protein) and the protein further purified on a Superdex 200 size exclusion column, where the detergent was exchanged to n-decyl-β-D-maltopyranoside (C10M, Anatrace).
(§2) Pure protein was reconstituted into liposomes composed of 75% E. coli Polar Lipid Extract and 25% 1-palmitoyl-2-oleoyl-sn-glycero-3 ^−phopshocholine (Avanti Polar Lipids). Lipids were mixed, dried under nitrogen and resuspended in internal buffer (100 mM KCl, 20 mM HEPES-Tris pH 7.5) using brief sonication (Laboratory Supplies Co.). The lipid suspension was frozen in liquid nitrogen and thawed at room temperature several times. Liposomes were formed by extrusion through 400 nm polycarbonate membranes (Avanti Polar Lipids) and were treated with Triton X-100 at a 0.5:1 (w/w) detergent to lipid ratio prior to the addition of protein at 0.25 μg protein per mg lipid. The protein/lipid mixture was left at room temperature for 30 min before detergent was removed using SM2 Biobeads (BioRad). The mixture was then incubated with gentle agitation, with four consecutive batches of Biobeads (80 mg per ml). Proteoliposomes were concentrated by centrifugation at 150,000 g for 30 min, resuspended at 100 mg lipid per ml and either used immediately or flash-frozen in liquid nitrogen and stored at −80 °C.
(§3) Mutant and wild-type GltPh-mediated transport of radiolabelled substrate was assayed by diluting proteoliposomes (100 mg lipid per ml) 133-fold into uptake buffer (100 mM NaCl, 20 mM HEPES-Tris pH 7.5, 1 μM valinomycin, 100 nM–1 µM L-[^3H]substrate) pre-warmed to 30 °C. At each time point, a 200 µl aliquot was removed and diluted 10-fold into ice-cold quench buffer (100 mM LiCl, 20 mM HEPES-Tris pH 7.5), followed by immediate filtration over nitrocellulose filters (0.22 μm pore size, Millipore). The filters were washed with ice-cold quench buffer and assayed for radioactivity using a Trilux beta counter (PerkinElmer). To establish substrate concentration–response curves, extraliposomal L-[^3H]substrate was varied between 500 nM and 100 µM, maintaining NaCl concentrations at 300 mM. For inhibitor concentration–response curves, for wild-type GltPh 100 nM L-[^3H]aspartate, and for mutant GltPh 1 µM L-[^3H]serine, was co-applied with varying inhibitor concentrations. Background levels of uptake were measured by diluting proteoliposomes into internal buffer (100 mM KCl, 20 mM HEPES-Tris pH 7.5) containing 1 µM of valinomycin and the indicated concentrations of L-[^3H]substrate.

GltPh-G396S/R397C = biological target: T2, GltPh-G396S/R397C (Pyrococcus horikoshii, UniProt O59010, G396S/R397C); assay: biochemical; format: biochemical; conditions: for Reduction of L-[3H]serine transport by unlabelled competitor (in words): GltPh-R397C/G396S, 10 µM L-[3H]serine, 100-fold excess unlabelled amino acid
T2 construct: hexa-His (N, cleaved yes); made in house; host or cells: Escherichia coli Top10 (pBAD)
T2 sequence (O59010 whole entry G396S/R397C): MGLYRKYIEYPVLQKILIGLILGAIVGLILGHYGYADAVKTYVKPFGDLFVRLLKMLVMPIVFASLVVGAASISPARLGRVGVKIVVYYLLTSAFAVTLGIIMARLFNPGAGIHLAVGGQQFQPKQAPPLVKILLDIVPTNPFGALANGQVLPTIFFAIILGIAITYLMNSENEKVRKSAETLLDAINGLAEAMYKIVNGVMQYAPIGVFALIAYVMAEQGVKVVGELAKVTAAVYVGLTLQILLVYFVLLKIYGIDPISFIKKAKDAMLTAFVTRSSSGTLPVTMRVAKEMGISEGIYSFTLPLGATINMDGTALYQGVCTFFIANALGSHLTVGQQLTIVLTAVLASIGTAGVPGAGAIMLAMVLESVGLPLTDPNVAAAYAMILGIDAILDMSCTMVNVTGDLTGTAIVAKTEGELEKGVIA
Description: as §1, §2, §3

GltPh-R397C [2] = biological target: T3, GltPh-R397C (Pyrococcus horikoshii, UniProt O59010, R397C); assay: biochemical
T3 construct: hexa-His (N, cleaved yes); made in house; host or cells: Escherichia coli Top10 (pBAD)
T3 sequence (O59010 whole entry R397C): as the sequence (O59010 whole entry G396S/R397C) above, with S396G counted along it
Description: as §1, §2, §3
Supplementary Figure 6. GltPh‐R397C, ASCT1 and ASCT2 are functional cysteine transporters. (a) Purified GltPh‐R397C was reconstituted into liposomes and 10µM 35S‐cysteine transport was measured over 10 minutes alone or in the presence of 1 mM dithiothreitol (DTT). Background levels of uptake were measured by diluting proteoliposomes into internal buffer (100 mM KCl, 20 mM HEPES‐Tris pH 7.5) containing 1 µM of valinomycin and the 10µM 35S‐cysteine. […]
(c) Neutral amino acid exchange in GltPh‐R397C. Counterflow experiments in which Na+ and amino acid loaded liposomes were used to detect the transport of a range of unlabelled neutral amino acids by exchanging with external 3H‐serine. Counterflow assays were performed using liposomes containing 200mM NaCl, 20 mM HEPES/Tris pH 7.5, and 1 mM of unlabelled amino acid as indicated. […]

ASCTs = system: ASCTs; parameters: method as in PMID 9463476; conditions: quoted in discussion; cited from earlier work
GltPh-R397C [3] = biological target: T3, GltPh-R397C; assay: biochemical; format: binding
Description: Fluorescence-based binding assays were performed by titrating purified protein (50 μg per ml) in 20 mM HEPES/Tris, pH 7.4, 200 mM choline chloride, 0.4 mM n-dodecyl^−β-D-maltopyranoside, 200 nM styryl fluorescent dye RH421 (Invitrogen, Inc., Grand Island, NY) with NaCl, L-ser, L-cys or benzylcysteine at 25 °C[51]. The RH421 dye was excited at 532 nm, and the fluorescence was collected at 628 nm using a QuantaMaster (Photon International Technology, Inc., Edison, NJ). Fluorescence emissions were measured after at least 10 min equilibration to ensure a stabilised signal. The data were analysed using GraphPad Prism version 6.0 for Mac (GraphPad Software, La Jolla California USA). Fractional fluorescence changes were normalised to maximal fluorescence changes, then plotted as a function of ligand concentration and fitted to the Hill equation. All the experiments were performed at least in triplicate.
Analysis of ligand binding data. The voltage sensitive amphipathic dye RH421 reports on Na+ binding to purified GltPh protein in detergent3. RH421 was used to follow Na+ binding to GltPh‐R397C protein either alone or in reactions coupled to binding of amino acids. […]
Coupled ions and amino acid binding was probed by titrating amino acids to the GltPh‐R397C protein in the presence of 10 – 100 mM Na+ ions. The obtained isotherms were analyzed to estimate an apparent number of Na+ ions coupled to binding of the amino acids.
Raw data were first normalized by the initial fluorescence of RH421 and plotted as fraction of fluorescence change (Supplementary […]
total amount of dye and detergent in the assay buffer.
To take into account significant amino acid‐independent Na+ binding, the sets of binding isotherms obtained at variable Na+ concentrations were fitted globally to a simplified binding equation: […]
KD,a is the combined dissociation constant for coupled Na+ and ligand binding and n is the apparent number of coupled ions. Fraction of the protein bound to either Na+ ions alone or to the ions and the […]
Fraction of the protein already bound to Na+ ions before ligand addition is: […]
Fractional fluorescence change Y is fitted to an equation: […]
where Y0 and ∆Y are, respectively, baseline and the signal difference between fully bound and apo […]
KD,a and n were fitted globally for each ligand. Y0 and ∆Y were adjusted for each isotherm independently. […]
individual isotherm to a standard Hill equation, plotted the apparent dissociation constants as functions of Na+ concentrations and compared the values to those predicted using the parameters from the global fits (Supplementary Figure 8).

GltPh-R397C [4] = biological target: T3, GltPh-R397C; format: biochemical; conditions: 100 nM L-[3H]aspartate, 1 µM L-[3H]glutamine, 10 µM 35S-cysteine ± 1 mM DTT, Na+ gradient
glutamate transporters = system: glutamate transporters; parameters: method as in PMID 9463476; conditions: quoted in discussion; cited from earlier work
wild-type GltPh [5] = biological target: T1, wild-type GltPh; conditions: published values, cited from earlier work
[6] = biological target: the molecule itself; assay: crystal structure; hanging-drop vapour diffusion at 4 °C, protein ~7 mg per ml in n-decyl-maltopyranoside, 15-21% PEG1000, 0.1 M LiSO4, 0.05 M citric acid, 0.05 M Na2HPO4; space group P61; refined with threefold NCS restraints; with L-aspartate (wild type) or 5 mM L-cysteine, L-serine or benzylcysteine (R397C)
[7] = GltPh-G396S/R397C, 1 µM L-[3H]serine, read-out: IC50 for inhibition of L-[3H]serine transport

## C[C@H](N)C(=O)O [L-alanine]
wild-type GltPh [1]; 1 µM L-[3H]substrate, Na+ gradient, pH 7.5
  Transport of radiolabelled substrate into proteoliposomes (in words): not transported
GltPh-G396S/R397C
  EC50: 4 ± 0.2 µM
GltPh-R397C [2]
  EC50: 14 ± 3 µM

## N[C@@H](CSCc1ccccc1)C(=O)O
wild-type GltPh [1]; 100 nM L-[3H]aspartate
  IC50 for inhibition of L-[3H]aspartate transport: ineffective
ASCTs
  Affinity for the ASCTs: ~ 1 mM
GltPh-G396S/R397C
  IC50: 280 ± 60 µM
GltPh-R397C [2]; GltPh-R397C, 1 µM L-[3H]serine
  IC50 for inhibition of L-[3H]serine transport: reduced affinity compared with benzylserine
GltPh-R397C [3]
  Kd: 1000 ± 300 µM
GltPh-R397C [3]; GltPh-R397C, global fit of isotherms at 10–100 mM Na+, 25 °C
  Apparent number of Na+ ions coupled to binding (n): 0.8 ± 0.04

## N[C@@H](CC(=O)O)C(=O)O [L-aspartate]
GltPh-R397C [4]
  Transport of radiolabelled substrate into proteoliposomes (in words): no longer capable of transporting
GltPh-G396S/R397C; GltPh-G396S/R397C, 100 nM L-[3H]aspartate, 1 µM L-[3H]glutamine, Na+ gradient, pH 7.5
  Transport of radiolabelled substrate into proteoliposomes (in words): does not effectively transport

## CC(C)[C@H](N)C(=O)O [L-valine]
GltPh-G396S/R397C
  Reduction of L-[3H]serine transport by unlabelled competitor (in words): to a similar extent

## N[C@H](C(=O)O)[C@H](OCc1ccccc1)C(=O)O [TBOA, L-threo-β-oxybenzylaspartic acid]
wild-type GltPh [1]; 100 nM L-[3H]aspartate, read-out: IC50 for inhibition of L-[3H]aspartate transport
  IC50: 2 ± 1 µM
Glutamate transporters
  Affinity for the glutamate transporters: ~ 50 μM
GltPh-G396S/R397C; [7]
  IC50: 500 ± 200 µM
GltPh-R397C [2]; GltPh-R397C, 1 µM L-[3H]serine
  IC50 for inhibition of L-[3H]serine transport: poorly inhibited

## N[C@@H](COCc1ccccc1)C(=O)O [benzylserine]
wild-type GltPh [1]; 100 nM L-[3H]aspartate
  IC50 for inhibition of L-[3H]aspartate transport: ineffective
ASCTs
  Affinity for the ASCTs: ~ 1 mM
GltPh-G396S/R397C; [7]
  IC50: 120 ± 20 µM
GltPh-R397C [2]; GltPh-R397C, 1 µM L-[3H]serine, read-out: IC50 for inhibition of L-[3H]serine transport
  IC50: 110 ± 10 µM

## [Na+] [Na+]
wild-type GltPh [5]; ref Reyes et al., 2013, read-out: KD,Na of Na+ binding
  Kd: 99300 µM
wild-type GltPh [5]; ref Reyes et al., 2013
  nNa of Na+ binding: 1.6
GltPh-R397C [3]; GltPh-R397C
  Hill coefficient nNa of Na+ binding in the absence of amino acids: 1.2 and 1.2 ± 0.1
GltPh-R397C [3]; GltPh-R397C, Hill fit, read-out: KD,Na of Na+ binding in the absence of amino acids
  Kd: 38000 µM

## CSCC[C@H](N)C(=O)O [L-methionine]
GltPh-G396S/R397C
  Reduction of L-[3H]serine transport by unlabelled competitor (in words): to a similar extent

B1: GltPh-R397C (natural protein, Pyrococcus horikoshii)
chain: MGLYRKYIEYPVLQKILIGLILGAIVGLILGHYGYADAVKTYVKPFGDLFVRLLKMLVMPIVFASLVVGAASISPARLGRVGVKIVVYYLLTSAFAVTLGIIMARLFNPGAGIHLAVGGQQFQPKQAPPLVKILLDIVPTNPFGALANGQVLPTIFFAIILGIAITYLMNSENEKVRKSAETLLDAINGLAEAMYKIVNGVMQYAPIGVFALIAYVMAEQGVKVVGELAKVTAAVYVGLTLQILLVYFVLLKIYGIDPISFIKKAKDAMLTAFVTRSSSGTLPVTMRVAKEMGISEGIYSFTLPLGATINMDGTALYQGVCTFFIANALGSHLTVGQQLTIVLTAVLASIGTAGVPGAGAIMLAMVLESVGLPLTDPNVAAAYAMILGIDAILDMGCTMVNVTGDLTGTAIVAKTEG
notes: GltPh of Pyrococcus horikoshii, wild-type background, with the point mutation R397C; Crystallised with L-cysteine, L-serine or benzylcysteine (5 mM each); source: E. coli Top10, purified (Ni-NTA, thrombin digestion, Superdex 200 SEC in detergent); not shown: His6, N-terminal, cleaved
[6]
  stoichiometry N: 3

B2: wild-type GltPh, aspartate transporter from Pyrococcus horikoshii (natural protein)
chain: B1 chain with C397R
notes: GltPh, Na+-dependent aspartate transporter of the archaeon Pyrococcus horikoshii; wild-type background (not the seven-histidine mutant CAT-7); Crystallised with L-aspartate and Na+ in n-decyl-maltopyranoside; Three protomers in the asymmetric unit (threefold NCS); also called Wt; source: E. coli Top10, purified (Ni-NTA, thrombin digestion, Superdex 200 SEC in detergent); not shown: His6, …
[6]
  binding result: binds

— paper PMC5750217 (Nature Communications, 2018)
